US20220347187A1, “HETEROCYCLIC COMPOUNDS AS KINASE INHIBITORS” (Nuvation Bio Inc., priority 2019, published 2022)

Tests used:
DU4475 = test: Cancer cell proliferation assay as a single agent (cell viability); format: cell-based; settings: Homo sapiens, DU-4475; Table 4; Rb negative breast carcinoma; 144H treatment
Protocol: (§1) The effects of test compounds were studied in two breast cancer cell lines of different subtype. The cancer cells (Table 3) were harvested during the logarithmic growth period and counted. Cell concentrations were adjusted to the appropriate number with respective medium and 90 μL cell suspensions were added to 96-well plates. After cells were seeded, the plates were shaken gently to distribute cells evenly and incubated at 37° C., 5% CO2 on day 1.
(§2) Cells were treated with test compounds at 7 to 9 concentrations within a desired concentration range (e.g. 1.1 nM-10 μM) on day 2 by series diluting the test compound stock solution (10 mM in DMSO) with culture medium. Treatment duration was 144H (with a medium change at 72H) for both MCF-7 and DU4475 cells. Cell viability was assessed by Cell Titer-Glo® as recommended by Promega (Cat. No.: G7572), or by resazurin assay (Sigma Aldrich, Cat. No.: R7017) post treatment.
(§3) Cell viability data were plotted using GraphPad Prism (GraphPad Software, Inc., San Diego, Calif.). In addition, a nonlinear regression model with a sigmoidal dose response and variable slope within GraphPad Prism was used to calculate the IC50 value of individual test compounds.

MCF-7 = test: as above; format: cell-based; settings: Homo sapiens, MCF7
Protocol: as §1, §2, §3

CDK4 = target: T1, CDK4 (Homo sapiens, UniProt P11802); test: In vitro kinase inhibition, luminescence (ADP-Glo) with retinoblastoma as substrate; format: biochemical; settings: ATP 25 μM, 2H at room temperature
T1 construct: purchased Invitrogen PR8064 A
Protocol: (§4) IC50 values of compounds against CDK4 and CDK6 were determined by luminescence using retinoblastoma as substrate. Kinase assays were performed in kinase buffer (#PV6135, Invitrogen, Life Technologies Grand Island. N.Y.) where total reaction volume was […] in 96-well half area white plates (#3693, Costar). One microliter of 25× test compounds at specific concentrations (e.g., final concentration range: 0.1 nM-200 nM) was mixed with 10 μL of 2.5× kinase (5 nM, CDK4 #PR8064 A and CDK6 #PR8422B, Invitrogen) solution and 14 μL of 4× mixed solution with retinoblastoma (1 μM, #12-439, EMD Millipore. Hayward, Calif.) and ATP (25 μM, #V7038, Promega, Madison, Wis.). The plates were covered and incubated for 2H at room temperature. At the end of incubation, 25 μL of stop solution—ADP Glo reagent (#V7002. Promega) was added. After incubation for 45 min at room temperature, 50 μL of detection reagent (##V7002, Promega) was added. Readings were taken at 15 min and 45 min incubation after detection reagent was added in a Synergy Neo Plate reader (BioTek, Winooski, Vt.) at single excitation of 340 nm and Dual emission at 495 nm and 520 nm respectively. The following equations were used in the CDK4 and CDK6 assay data analysis. Percent inhibition (100-% activity) was fitted to the “four-parameter logistic model” in XLfit for determination of IC50 values.
(§5) Percent conversion of enzyme=100−{(RLUNo Drug−No enzyme*100)/RLUNo drug+Enzyme} Equation 1:
(§6) Percent conversion at each data point=100−{(RLUAverage(Drug+enzyme)*100)/RLUNo drug+Enzyme} Equation 2:
(§7) Percent Inhibition=100*(% Conversioneach data point/% ConversionEnzyme) Equation 3: […]

CDK6 = target: T2, CDK6 (Homo sapiens, UniProt Q00534); test: as above; format: biochemical; settings: ATP 25 μM, 2H at room temperature
T2 construct: purchased Invitrogen PR8422B
Protocol: as §4, §5, §6, §7

CDK1 (cyclin B) = target: T3, CDK1 (cyclin B) (Homo sapiens, UniProt P06493); test: Z'-LYTE kinase assay; format: biochemical; settings: ATP 34 μM, 60 minutes
T3 construct: purchased Invitrogen Life Technologies (screening service)
Protocol: IC50 values of compounds against CDK1 (cyclin B) were determined by Z′-LYTE™. These screening assays were performed at Invitrogen Life Technologies (Grand Island, N.Y.) on a low volume NBS, black 384-well plate (#4514, Corning), 0.1 μL of 100× test compound in 100% DMSO (at specific solutions) was mixed with 2.4 μL of Kinase Buffer (50 mM HEPES pH 7.5, 0.01% BRIJ-35, 10 mM MgCl2, 1 mM EGTA), 5 μL of 2× Kinase (3.5-46.4 ng CDK1/cyclin B)/Peptide (2 μM Ser/Thr 18), and 2.5 μL of 4×ATP solution (34 μM). The plates were shaken for 30 seconds, and incubated for 60 minutes at room temperature. Development Reagent Solution (5 μL of 1:1024 dilution) was added to the plates followed with another 30-second plate shake, and the plates were further incubated at room temperature for one hour. The plates were read on fluorescence plate reader with Dual emission at 445 nm and 520 nm.
(§8) The following equations were used for Z′-LYTE™ Screening Assay Data Analysis. Percent inhibition (100-% activity) was fitted to the “four-parameter logistic model” in XLfit for determination of IC50 values.

CDK2 (cyclin A) = target: T4, CDK2 (cyclin A) (Homo sapiens, UniProt P24941); test: Z'-LYTE kinase assay; format: biochemical; settings: ATP 31 μM, 60 minutes
T4 construct: purchased Invitrogen Life Technologies (screening service)
Protocol: IC50 values of compounds against CDK2 (cyclin A) were determined by Z′-LYTE™. These screening assays were performed at Invitrogen Life Technologies (Grand Island, N.Y.) on a low volume NBS, black 384-well plate (#4514. Corning), 0.1 μL of 100× test compound in 100% DMSO (at specific solutions) was mixed with 2.4 μL of Kinase Buffer (50 mM HEPES pH 7.5, 0.01% BRIJ-35, 10 mM MgCl2, 1 mM EGTA), 5 μL of 2× Kinase (1.22-10.3 ng CDK2/cyclin A)/Peptide (2 μM Ser/Thr 12), and 2.5 μL of 4×ATP solution (31 μM). The plates were shaken for 30 seconds, and incubated for 60 minutes at room temperature. Development Reagent Solution (5 μL of 1:1024 dilution) was added to the plates followed with another 30-second plate shake and the plates were further incubated at room temperature for one hour. The plates were read on fluorescence plate reader with Dual emission at 445 nm and 520 nm.
as §8

PI3Kδ = target: T5, PI3Kδ (Homo sapiens, UniProt O00329); test: PI3Kδ kinase assay (ADP-Glo, Reaction Biology Corporation); format: biochemical
T5 construct: purchased Reaction Biology Corporation (service assay)
Protocol: IC50 values of compounds against the PI3KS kinase were determined by an assay performed by Reaction Biology Corporation (Malvern, Pa.). Briefly, this assay was conducted in buffer (Tris-HCl 40 mM (pH7.5), Orthovanadate 3 mM, MgCl2 20 mM, DTT 2 mM, CHAPS 0.05%, DMSO 1%). PI3K8 kinase was added to the reaction solution and mixed gently. The test compounds in 100% DMSO (at specific solutions) were mixed with the kinase reaction mixture to achieve the final compounds at pre-defined concentrations (e.g., range—0.5 nM to 100 μM) by Acoustic technology (Echo550; nanoliter range). After incubating for 10 min at room temp, ATP was added into the reaction mixture to initiate the reaction followed by a 30-min incubation at 30° C. After quenching the reaction with ADP-Glo reagent, the plates were incubated for 40 min. The Detection Mixture was added, and the plate was incubated for an additional 30 min. At the end of incubation, luminescence was measured. For data analysis, the luminescence was converted into μM ADP production based on ADP standard curves. The nonlinear regression to obtain the standard curve and IC50 values was performed using GraphPad Prism (GraphPad Software. Inc., San Diego, Calif.).

MCF-7-PR = test: Cell viability in palbociclib-resistant cell line; format: cell-based
Protocol: as §2, §3
The effects of test compound in a palbociclib-resistant cell line and a parental, non-resistant cell line were compared. The palbociclib-resistant cell line (“MCF-7-PR”) was derived from the parental, non-resistant cell line (MCF-7 breast adenocarcinoma cells) by culture of cells over a period of three months in increasing concentrations of palbociclib, starting from about 350 nM and ending at about 850 nM, the final concentration at which they were then maintained in culture. […]

[1] = Table 4, Rb positive breast adenocarcinoma, 144H treatment

T3 sequence (P06493 whole entry): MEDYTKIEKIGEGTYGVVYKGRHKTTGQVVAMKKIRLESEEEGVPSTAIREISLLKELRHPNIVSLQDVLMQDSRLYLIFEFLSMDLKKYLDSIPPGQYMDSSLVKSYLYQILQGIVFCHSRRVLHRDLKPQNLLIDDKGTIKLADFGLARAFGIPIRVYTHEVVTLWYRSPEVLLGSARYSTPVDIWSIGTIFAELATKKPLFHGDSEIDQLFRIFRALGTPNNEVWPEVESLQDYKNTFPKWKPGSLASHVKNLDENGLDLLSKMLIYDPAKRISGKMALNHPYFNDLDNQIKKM
T3 sequence (P14635 whole entry partner): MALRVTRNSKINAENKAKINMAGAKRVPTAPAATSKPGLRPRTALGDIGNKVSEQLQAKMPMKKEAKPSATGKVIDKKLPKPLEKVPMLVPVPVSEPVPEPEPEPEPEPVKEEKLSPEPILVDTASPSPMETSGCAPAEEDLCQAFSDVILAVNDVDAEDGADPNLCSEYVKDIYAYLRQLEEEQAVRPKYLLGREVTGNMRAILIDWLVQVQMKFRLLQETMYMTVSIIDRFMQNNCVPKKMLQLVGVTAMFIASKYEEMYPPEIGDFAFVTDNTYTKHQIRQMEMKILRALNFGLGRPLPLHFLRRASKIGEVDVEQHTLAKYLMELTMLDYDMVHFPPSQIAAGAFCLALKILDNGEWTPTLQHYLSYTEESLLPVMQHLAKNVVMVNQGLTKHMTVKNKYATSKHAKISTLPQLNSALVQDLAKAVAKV
T5 sequence (O00329 whole entry): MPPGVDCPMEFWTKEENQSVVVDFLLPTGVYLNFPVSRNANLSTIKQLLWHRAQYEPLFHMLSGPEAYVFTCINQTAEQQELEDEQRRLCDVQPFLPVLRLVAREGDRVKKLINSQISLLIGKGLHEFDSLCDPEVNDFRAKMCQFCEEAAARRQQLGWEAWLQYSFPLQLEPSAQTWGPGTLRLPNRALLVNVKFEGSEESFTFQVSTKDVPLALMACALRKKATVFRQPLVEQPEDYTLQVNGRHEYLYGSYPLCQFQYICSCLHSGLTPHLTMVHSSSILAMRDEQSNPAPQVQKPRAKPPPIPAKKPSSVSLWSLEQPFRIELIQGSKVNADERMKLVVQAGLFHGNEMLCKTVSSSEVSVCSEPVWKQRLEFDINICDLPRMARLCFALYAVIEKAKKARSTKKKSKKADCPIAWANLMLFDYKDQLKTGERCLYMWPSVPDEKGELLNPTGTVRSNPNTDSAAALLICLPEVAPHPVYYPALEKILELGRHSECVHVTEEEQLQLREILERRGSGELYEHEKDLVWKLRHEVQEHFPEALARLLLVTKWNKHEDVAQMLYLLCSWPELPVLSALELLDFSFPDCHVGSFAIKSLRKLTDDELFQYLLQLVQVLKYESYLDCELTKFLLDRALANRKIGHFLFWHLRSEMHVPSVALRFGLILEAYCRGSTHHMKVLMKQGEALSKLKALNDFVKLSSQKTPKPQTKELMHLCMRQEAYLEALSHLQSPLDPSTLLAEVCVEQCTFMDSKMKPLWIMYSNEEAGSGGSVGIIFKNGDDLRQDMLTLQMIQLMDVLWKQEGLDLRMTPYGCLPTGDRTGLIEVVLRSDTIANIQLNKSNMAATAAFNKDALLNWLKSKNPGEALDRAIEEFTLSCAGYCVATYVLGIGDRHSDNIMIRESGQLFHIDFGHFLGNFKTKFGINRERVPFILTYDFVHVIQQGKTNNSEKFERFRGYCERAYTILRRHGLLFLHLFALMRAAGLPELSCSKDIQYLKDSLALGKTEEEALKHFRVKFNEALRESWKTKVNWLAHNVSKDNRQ
T5 sequence (P27986 whole entry partner): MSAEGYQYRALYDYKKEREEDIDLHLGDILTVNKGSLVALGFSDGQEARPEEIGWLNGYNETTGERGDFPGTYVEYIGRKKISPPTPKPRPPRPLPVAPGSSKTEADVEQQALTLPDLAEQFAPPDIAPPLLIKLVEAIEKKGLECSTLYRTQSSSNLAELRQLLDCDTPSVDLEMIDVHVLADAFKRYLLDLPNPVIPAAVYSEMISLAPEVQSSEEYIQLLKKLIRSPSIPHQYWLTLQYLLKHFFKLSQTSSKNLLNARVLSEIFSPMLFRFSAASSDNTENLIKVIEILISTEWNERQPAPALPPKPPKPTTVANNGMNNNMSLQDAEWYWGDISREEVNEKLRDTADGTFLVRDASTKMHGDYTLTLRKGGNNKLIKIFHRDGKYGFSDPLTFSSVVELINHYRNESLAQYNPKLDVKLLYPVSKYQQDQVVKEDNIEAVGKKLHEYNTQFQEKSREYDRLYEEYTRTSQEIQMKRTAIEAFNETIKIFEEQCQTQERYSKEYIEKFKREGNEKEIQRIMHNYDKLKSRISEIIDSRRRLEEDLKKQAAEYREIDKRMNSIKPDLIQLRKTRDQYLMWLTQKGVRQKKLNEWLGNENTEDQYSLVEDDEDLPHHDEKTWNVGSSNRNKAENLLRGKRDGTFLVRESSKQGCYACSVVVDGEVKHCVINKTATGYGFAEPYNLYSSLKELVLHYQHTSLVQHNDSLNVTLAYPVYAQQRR
T1 sequence (P11802 whole entry): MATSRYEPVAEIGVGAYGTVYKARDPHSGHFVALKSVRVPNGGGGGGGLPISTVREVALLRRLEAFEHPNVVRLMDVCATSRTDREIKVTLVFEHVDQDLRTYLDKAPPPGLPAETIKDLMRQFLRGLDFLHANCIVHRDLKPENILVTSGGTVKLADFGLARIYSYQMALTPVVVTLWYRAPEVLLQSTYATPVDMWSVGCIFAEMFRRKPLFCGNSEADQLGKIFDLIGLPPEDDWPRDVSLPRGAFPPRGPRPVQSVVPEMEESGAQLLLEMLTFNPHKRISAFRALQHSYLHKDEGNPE
T1 sequence (P24385 whole entry partner): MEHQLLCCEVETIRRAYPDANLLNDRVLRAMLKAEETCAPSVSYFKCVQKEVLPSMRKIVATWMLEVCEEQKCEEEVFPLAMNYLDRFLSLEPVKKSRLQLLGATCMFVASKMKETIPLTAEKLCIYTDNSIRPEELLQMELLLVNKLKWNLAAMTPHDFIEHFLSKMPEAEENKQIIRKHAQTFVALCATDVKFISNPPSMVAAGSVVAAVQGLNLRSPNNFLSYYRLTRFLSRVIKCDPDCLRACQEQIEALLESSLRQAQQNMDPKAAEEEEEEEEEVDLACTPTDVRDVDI
T2 sequence (Q00534 whole entry): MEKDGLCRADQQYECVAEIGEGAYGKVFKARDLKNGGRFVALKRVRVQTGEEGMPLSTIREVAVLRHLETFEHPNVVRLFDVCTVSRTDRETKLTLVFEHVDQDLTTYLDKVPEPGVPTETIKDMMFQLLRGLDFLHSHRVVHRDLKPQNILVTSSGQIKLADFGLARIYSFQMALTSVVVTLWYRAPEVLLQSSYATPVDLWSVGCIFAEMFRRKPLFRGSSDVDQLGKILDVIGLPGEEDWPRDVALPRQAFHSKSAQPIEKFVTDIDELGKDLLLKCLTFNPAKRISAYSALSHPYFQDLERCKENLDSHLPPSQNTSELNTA
T2 sequence (P24385 whole entry partner): as the sequence (P24385 whole entry partner) above

Row | SMILES | IC50 (DU4475) [nM] | IC50 (MCF-7; [1]) [nM] | IC50 (CDK4) [nM] | IC50 (CDK6) [nM] | IC50 (CDK1 (cyclin B)) [nM] | IC50 (CDK2 (cyclin A)) [nM] | IC50 (PI3Kδ) [nM] | IC50 (MCF-7; Table 5, parental, non-resistant cell line) [nM] | IC50 (MCF-7-PR; Table 5, palbociclib-resistant cell line) [nM] | resistance to palbociclib compared to parental MCF-7 cells, as increase in cell viability IC50 (MCF-7-PR; MCF-7-PR vs MCF-7)
1 | CC(C)N1CCOc2c(F)cc(-c3nc(Nc4cccc(N5CCCNCC5)c4)ncc3F)cc21 [Compound 1, N-(3-(1,4-diazepan-1-yl)phenyl)-5-fluoro-4-(8-fluoro-4-isopropyl-3,4-dihydro-2H-benzo[b][1,4]oxazin-6-yl)pyrimidin-2-amine] | 285 | 252 | 40 | 53 | – | – | – | – | – | –
2 | CC(C)N1CCOc2c(F)cc(-c3nc(Nc4cc(N5CCCNCC5)ccn4)ncc3F)cc21 [Compound 2, N-(4-(1,4-diazepan-1-yl)pyridin-2-yl)-5-fluoro-4-(8-fluoro-4-isopropyl-3,4-dihydro-2H-benzo[b][1,4]oxazin-6-yl)pyrimidin-2-amine] | 1640 | 823 | > 200 | > 200 | 2800 | 1230 | > 50000 | – | – | –
3 | CCN1CCC(COc2ccc(Nc3ncc(F)c(-c4cc(F)c5c(c4)N(C(C)C)CCO5)n3)nc2)CC1 [Compound 3, N-(5-((1-ethylpiperidin-4-yl)methoxy)pyridin-2-yl)-5-fluoro-4-(8-fluoro-4-isopropyl-3,4-dihydro-2H-benzo[b][1,4]oxazin-6-yl)pyrimidin-2-amine] | 655 | 60 | 5 | 6.5 | 1490 | 207 | > 50000 | – | – | –
4 | CCN1CCC(COc2ccc(Nc3cc(-c4cc(F)c5c(c4)N(C(C)C)CCO5)c(F)cn3)nc2)CC1 [Compound 4, N-(5-((1-ethylpiperidin-4-yl)methoxy)pyridin-2-yl)-5-fluoro-4-(8-fluoro-4-isopropyl-3,4-dihydro-2H-benzo[b][1,4]oxazin-6-yl)pyridin-2-amine] | 275 | 215 | 7 | 12 | 200 | 75 | > 30200 | – | – | –
5 | CC(C)N1CCOc2c(F)cc(-c3nc(NC4CCN(S(C)(=O)=O)CC4)ncc3F)cc21 [Compound 5, 5-fluoro-4-(8-fluoro-4-isopropyl-3,4-dihydro-2H-benzo[b][1,4]oxazin-6-yl)-N-(1-(methylsulfonyl)piperidin-4-yl)pyrimidin-2-amine] | 230 | 525 | 2 | 9 | < 1 | < 1 | > 36600 | – | – | –
6 | Cc1nn(C2CCNCC2)cc1Nc1ncc(F)c(-c2cc(F)c3c(c2)N(C(C)C)CCO3)n1 [Compound 67, 5-fluoro-4-(8-fluoro-4-isopropyl-3,4-dihydro-2H-benzo[b][1,4]oxazin-6-yl)-N-(3-methyl-1-(piperidin-4-yl)-1H-pyrazol-4-yl)pyrimidin-2-amine] | 130 | 80 | 16 | 45 | 94 | 45 | – | 40 | 72 | –
7 | CC(C)N1CCOc2c(F)cc(-c3nc(Nc4ccc(N5CCNC(=O)C5)cn4)ncc3F)cc21 [Compound 85, 4-(6-((5-fluoro-4-(8-fluoro-4-isopropyl-3,4-dihydro-2H-benzo[b][1,4]oxazin-6-yl)pyrimidin-2-yl)amino)pyridin-3-yl)piperazin-2-one] | 3610 | 392 | 10 | 26 | 4550 | 2470 | – | – | – | –
8 | CC(C)N1CCOc2c(F)cc(-c3nc(Nc4ccc(N5CCN(C)C(=O)C5)cn4)ncc3F)cc21 [Compound 86, 4-(6-((5-fluoro-4-(8-fluoro-4-isopropyl-3,4-dihydro-2H-benzo[b][1,4]oxazin-6-yl)pyrimidin-2-yl)amino)pyridin-3-yl)-1-methylpiperazin-2-one] | 1140 | 160 | 1 | 3 | 1480 | 278 | – | – | – | –
9 | CC(=O)c1c(C)c2cnc(Nc3ccc(N4CCNCC4)cn3)nc2n(C2CCCC2)c1=O [palbociclib, reference compound] | – | – | – | – | – | – | – | – | – | at least 5 fold
